Assay [1] deals with T1, Mitogen-activated protein kinase kinase kinase 5 (Homo sapiens) (UniProt Q99683).
T1 sequence (whole entry): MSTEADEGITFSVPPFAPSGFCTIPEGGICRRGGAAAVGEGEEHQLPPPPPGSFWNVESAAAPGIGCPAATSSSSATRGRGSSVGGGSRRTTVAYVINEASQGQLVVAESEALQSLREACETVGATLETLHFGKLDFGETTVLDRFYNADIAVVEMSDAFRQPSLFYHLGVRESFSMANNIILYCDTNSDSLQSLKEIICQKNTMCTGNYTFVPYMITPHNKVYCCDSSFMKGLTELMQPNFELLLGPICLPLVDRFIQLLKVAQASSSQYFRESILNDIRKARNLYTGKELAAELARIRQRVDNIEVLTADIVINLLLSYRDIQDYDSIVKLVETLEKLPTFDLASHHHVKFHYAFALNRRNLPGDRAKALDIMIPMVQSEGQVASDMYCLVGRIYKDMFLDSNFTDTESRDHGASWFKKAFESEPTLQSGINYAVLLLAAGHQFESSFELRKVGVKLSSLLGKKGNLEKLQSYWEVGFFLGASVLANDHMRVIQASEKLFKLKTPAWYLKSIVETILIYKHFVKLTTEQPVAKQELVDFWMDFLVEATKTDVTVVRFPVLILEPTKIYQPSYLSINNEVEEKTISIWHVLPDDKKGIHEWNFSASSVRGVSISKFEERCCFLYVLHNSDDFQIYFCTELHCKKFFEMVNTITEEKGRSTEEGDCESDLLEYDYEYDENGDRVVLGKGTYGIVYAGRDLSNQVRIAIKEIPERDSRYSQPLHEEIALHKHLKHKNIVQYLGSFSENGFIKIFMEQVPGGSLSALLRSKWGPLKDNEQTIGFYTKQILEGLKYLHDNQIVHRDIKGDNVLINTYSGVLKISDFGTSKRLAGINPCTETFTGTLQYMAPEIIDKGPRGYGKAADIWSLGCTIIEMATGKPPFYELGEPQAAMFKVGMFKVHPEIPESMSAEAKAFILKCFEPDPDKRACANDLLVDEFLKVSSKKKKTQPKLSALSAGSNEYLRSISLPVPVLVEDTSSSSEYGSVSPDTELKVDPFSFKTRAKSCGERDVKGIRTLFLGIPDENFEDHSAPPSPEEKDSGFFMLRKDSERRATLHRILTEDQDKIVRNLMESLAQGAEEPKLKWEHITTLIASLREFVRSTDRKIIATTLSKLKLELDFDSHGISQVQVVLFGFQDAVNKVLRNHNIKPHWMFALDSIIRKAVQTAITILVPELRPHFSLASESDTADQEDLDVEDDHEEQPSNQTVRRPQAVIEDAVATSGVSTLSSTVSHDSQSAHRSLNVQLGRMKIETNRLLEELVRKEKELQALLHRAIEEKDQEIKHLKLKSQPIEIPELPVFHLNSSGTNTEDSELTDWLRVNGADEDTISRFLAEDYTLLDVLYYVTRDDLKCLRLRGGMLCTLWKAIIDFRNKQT

For assay [2], the target named is Calcium/calmodulin-dependent protein kinase type II subunit alpha (Homo sapiens) (UniProt Q9UQM7).
Sequence of Calcium/calmodulin-dependent protein kinase type II subunit alpha (Homo sapiens) (Q9UQM7 whole entry): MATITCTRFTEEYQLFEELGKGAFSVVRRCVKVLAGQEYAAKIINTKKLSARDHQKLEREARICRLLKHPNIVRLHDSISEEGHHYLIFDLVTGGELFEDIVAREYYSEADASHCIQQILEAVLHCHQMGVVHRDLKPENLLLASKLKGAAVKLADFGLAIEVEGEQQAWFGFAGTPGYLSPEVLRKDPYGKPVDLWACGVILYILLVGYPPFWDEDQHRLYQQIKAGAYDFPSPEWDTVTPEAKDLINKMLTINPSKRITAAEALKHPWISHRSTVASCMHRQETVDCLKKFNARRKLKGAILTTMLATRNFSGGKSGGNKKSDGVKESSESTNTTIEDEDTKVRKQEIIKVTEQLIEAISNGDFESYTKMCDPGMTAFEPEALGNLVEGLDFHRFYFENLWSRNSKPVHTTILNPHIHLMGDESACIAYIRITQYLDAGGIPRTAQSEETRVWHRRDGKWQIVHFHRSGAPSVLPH
In assay [3] the target is Serine/threonine-protein kinase PLK1 (Homo sapiens) (UniProt P53350).
Sequence of Serine/threonine-protein kinase PLK1 (Homo sapiens) (P53350 whole entry): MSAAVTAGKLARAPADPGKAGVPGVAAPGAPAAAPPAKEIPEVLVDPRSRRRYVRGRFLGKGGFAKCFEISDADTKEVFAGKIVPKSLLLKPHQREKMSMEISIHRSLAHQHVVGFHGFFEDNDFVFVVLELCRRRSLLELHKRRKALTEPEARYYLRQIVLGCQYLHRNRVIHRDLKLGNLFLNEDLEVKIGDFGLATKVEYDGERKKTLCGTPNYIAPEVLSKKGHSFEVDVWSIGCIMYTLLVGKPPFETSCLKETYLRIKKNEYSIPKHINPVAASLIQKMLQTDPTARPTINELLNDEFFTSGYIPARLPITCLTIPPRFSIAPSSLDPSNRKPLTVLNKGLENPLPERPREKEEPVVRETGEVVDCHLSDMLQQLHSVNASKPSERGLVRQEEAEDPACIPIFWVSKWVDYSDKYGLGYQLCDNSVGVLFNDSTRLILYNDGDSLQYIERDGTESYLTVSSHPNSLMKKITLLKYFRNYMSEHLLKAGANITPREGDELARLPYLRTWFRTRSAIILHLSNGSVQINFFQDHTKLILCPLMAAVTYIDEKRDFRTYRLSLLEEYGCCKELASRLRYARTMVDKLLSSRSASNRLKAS
Assay [4] deals with Serine/threonine-protein kinase 10 (Homo sapiens) (UniProt O94804).
In assay [5] the target is Cyclin-dependent kinase 6 (Homo sapiens) (UniProt Q00534).
Assay [6] concerns the target T2, Serine/threonine-protein kinase 17A (Homo sapiens) (UniProt Q9UEE5).
T2 sequence (whole entry): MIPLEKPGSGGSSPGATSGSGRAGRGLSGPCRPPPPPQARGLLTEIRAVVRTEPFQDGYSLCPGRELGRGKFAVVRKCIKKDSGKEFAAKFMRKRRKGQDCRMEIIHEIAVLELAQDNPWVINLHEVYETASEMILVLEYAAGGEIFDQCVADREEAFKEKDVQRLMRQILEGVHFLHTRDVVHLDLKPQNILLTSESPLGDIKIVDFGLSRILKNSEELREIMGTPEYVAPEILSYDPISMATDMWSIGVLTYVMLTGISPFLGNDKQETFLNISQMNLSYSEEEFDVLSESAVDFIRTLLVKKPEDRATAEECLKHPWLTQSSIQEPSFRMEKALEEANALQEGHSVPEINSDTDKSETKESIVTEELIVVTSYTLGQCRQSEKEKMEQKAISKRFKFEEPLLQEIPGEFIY

Assay [7] has as its target Serine/threonine-protein kinase 26 (Homo sapiens) (UniProt Q9P289).
In assay [8] the target is Glycogen synthase kinase-3 beta (Homo sapiens, UniProt P49841).
Assay [9] has as its target Calcium/calmodulin-dependent protein kinase type II subunit beta (Homo sapiens) (UniProt Q13554).
Assay [10] has as its target TRAF2 and NCK-interacting protein kinase (Homo sapiens) (UniProt Q9UKE5).
The target of assay [11] is Serine/threonine-protein kinase 16 (Homo sapiens) (UniProt O75716).
Sequence of Serine/threonine-protein kinase 16 (Homo sapiens) (O75716 whole entry): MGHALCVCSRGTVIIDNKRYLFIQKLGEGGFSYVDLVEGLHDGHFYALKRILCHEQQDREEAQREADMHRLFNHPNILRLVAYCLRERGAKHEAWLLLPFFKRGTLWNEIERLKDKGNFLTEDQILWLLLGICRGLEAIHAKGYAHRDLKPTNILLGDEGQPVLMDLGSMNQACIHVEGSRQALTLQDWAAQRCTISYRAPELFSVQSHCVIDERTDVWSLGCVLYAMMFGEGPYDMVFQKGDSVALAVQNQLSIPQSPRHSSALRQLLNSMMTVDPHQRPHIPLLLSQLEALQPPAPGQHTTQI
Assay [12] concerns the target Calcium/calmodulin-dependent protein kinase type II subunit delta (Homo sapiens) (UniProt Q13557).
The target of assay [13] is Serine/threonine-protein kinase PAK 5 (Homo sapiens) (UniProt Q9P286).
Assay [14] has as its target Serine/threonine-protein kinase Chk2 (Homo sapiens, UniProt O96017).
The target in assay [15] is Tyrosine-protein kinase JAK1 (Homo sapiens) (UniProt P23458).
Assay [16] addresses Serine/threonine-protein kinase pim-2 (Homo sapiens, UniProt Q9P1W9).
In assay [17] the target is Mitogen-activated protein kinase 3 (Homo sapiens, UniProt P27361).
Sequence of Mitogen-activated protein kinase 3 (P27361 whole entry): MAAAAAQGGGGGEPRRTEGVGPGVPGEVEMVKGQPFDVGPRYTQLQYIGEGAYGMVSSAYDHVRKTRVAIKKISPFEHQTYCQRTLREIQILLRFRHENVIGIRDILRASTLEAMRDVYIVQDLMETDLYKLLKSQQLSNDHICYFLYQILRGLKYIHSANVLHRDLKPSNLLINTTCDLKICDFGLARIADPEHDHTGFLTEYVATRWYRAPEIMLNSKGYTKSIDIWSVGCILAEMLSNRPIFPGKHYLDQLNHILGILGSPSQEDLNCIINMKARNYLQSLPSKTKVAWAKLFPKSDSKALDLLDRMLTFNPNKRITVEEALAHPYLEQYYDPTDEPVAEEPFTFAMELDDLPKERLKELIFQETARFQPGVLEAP
The target of assay [18] is Serine/threonine-protein kinase VRK2 (Homo sapiens) (UniProt Q86Y07).
Sequence of Serine/threonine-protein kinase VRK2 (Homo sapiens) (Q86Y07 whole entry): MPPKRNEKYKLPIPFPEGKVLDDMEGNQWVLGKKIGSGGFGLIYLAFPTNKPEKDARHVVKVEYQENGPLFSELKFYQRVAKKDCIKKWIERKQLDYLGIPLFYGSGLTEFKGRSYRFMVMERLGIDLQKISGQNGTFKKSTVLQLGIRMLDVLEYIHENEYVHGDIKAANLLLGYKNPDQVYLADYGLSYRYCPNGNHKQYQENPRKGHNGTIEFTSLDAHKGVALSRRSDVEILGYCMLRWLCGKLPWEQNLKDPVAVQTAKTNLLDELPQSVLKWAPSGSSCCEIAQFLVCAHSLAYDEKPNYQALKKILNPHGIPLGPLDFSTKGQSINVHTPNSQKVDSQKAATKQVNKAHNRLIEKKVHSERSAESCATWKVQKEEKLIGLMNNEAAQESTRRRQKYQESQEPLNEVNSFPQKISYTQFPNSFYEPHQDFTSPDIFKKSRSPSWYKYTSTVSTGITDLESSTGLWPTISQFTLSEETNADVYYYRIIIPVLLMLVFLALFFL
The target in assay [19] is Serine/threonine-protein kinase Nek6 (Homo sapiens) (UniProt Q9HC98).
Sequence of Serine/threonine-protein kinase Nek6 (Homo sapiens) (Q9HC98 whole entry): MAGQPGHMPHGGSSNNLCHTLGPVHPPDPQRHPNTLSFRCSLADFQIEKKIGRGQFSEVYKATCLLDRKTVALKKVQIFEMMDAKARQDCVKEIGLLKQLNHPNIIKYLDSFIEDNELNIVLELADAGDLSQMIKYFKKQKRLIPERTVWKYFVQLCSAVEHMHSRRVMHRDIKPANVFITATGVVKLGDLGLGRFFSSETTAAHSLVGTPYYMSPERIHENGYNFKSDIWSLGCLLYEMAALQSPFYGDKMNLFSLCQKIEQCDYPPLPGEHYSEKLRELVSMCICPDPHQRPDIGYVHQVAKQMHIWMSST
The target in assay [20] is Serine/threonine-protein kinase 26 (Homo sapiens) (UniProt Q9P289). The source holds these as a separate data set.
Assay [21] has as its target Calcium/calmodulin-dependent protein kinase type 1G (Homo sapiens) (UniProt Q96NX5).

The results in this text go back to ChEMBL document CHEMBL1145498, “A systematic interaction map of validated kinase inhibitors with Ser/Thr kinases” (Proc Natl Acad Sci U S A, 2007).

Molecules are shown by their SMILES.

The term ΔTm denotes the change in melting temperature against a reference sample.

Sequence of Calcium/calmodulin-dependent protein kinase type II subunit beta (Homo sapiens) (Q13554 whole entry): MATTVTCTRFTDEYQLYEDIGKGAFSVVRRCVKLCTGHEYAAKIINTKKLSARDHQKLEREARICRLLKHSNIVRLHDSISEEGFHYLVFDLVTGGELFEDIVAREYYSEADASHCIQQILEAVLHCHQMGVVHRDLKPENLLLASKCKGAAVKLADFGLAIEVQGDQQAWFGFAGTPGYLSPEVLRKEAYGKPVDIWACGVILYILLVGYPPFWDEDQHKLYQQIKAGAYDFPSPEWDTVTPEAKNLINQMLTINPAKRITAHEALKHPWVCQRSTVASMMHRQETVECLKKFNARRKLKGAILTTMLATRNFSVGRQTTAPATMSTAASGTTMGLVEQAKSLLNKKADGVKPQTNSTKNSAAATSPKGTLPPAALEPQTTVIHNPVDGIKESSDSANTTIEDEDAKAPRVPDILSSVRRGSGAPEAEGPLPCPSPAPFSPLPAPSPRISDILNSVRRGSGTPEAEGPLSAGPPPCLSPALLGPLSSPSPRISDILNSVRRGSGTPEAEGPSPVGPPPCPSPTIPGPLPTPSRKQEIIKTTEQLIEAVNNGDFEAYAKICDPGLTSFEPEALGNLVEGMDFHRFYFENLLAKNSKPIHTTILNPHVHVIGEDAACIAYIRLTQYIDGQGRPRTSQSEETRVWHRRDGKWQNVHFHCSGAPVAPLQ
Sequence of TRAF2 and NCK-interacting protein kinase (Homo sapiens) (Q9UKE5 whole entry, looked up): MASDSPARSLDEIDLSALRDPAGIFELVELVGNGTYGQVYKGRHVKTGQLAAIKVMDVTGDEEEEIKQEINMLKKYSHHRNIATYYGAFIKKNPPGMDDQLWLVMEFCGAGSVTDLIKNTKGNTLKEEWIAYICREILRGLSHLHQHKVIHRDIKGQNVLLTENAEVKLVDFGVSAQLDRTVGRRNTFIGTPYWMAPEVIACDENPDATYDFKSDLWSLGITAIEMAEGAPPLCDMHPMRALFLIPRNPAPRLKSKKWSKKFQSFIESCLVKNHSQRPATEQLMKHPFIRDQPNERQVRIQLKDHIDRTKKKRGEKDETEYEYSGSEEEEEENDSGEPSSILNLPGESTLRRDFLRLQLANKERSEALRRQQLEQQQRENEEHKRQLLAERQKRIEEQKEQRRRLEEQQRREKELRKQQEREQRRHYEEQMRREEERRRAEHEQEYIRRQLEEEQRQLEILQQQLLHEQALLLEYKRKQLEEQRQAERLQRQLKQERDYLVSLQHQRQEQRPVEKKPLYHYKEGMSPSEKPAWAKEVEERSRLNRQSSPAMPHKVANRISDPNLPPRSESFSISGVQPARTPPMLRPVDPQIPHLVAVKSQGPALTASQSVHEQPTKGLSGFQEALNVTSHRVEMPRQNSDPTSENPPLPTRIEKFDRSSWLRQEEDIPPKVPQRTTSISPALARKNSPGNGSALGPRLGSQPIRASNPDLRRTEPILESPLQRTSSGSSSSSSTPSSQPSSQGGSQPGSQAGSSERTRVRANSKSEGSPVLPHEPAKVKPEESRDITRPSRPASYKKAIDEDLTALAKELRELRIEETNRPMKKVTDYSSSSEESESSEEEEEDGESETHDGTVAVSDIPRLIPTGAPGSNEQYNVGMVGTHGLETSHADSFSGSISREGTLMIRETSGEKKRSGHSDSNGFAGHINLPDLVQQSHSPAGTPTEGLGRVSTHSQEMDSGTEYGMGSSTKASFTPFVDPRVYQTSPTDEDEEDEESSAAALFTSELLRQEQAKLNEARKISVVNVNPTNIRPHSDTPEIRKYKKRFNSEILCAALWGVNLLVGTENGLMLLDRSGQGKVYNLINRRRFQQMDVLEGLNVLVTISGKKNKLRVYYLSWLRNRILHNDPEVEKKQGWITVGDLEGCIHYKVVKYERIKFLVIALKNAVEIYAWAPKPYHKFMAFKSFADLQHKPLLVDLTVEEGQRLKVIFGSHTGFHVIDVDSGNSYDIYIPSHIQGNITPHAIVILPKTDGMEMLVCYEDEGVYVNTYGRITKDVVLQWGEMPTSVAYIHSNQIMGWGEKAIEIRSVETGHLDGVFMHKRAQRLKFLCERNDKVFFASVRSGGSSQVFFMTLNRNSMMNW
Sequence of Serine/threonine-protein kinase pim-2 (Q9P1W9 whole entry, looked up): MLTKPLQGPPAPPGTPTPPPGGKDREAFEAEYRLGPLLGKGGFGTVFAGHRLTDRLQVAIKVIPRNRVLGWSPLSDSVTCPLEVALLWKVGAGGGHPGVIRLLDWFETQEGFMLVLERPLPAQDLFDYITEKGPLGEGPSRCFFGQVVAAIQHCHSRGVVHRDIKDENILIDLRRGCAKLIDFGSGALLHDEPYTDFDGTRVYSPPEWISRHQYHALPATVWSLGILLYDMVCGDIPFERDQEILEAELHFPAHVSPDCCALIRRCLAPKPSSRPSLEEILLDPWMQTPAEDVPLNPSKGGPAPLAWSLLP

On to `CC(C)n1cnc2c(NCc3ccccc3)nc(NCCCO)nc21`, for which the ΔTm is 0.2 °C in assay [1]; 1.8 °C in assay [2]; 1.8 °C in assay [3]; -0.4 °C in [4]; 0.2 °C in [5]; 0 °C in assay [6]. Besides, the ΔTm in assay [7] was -0.3 °C; in assay [8], 0.5 °C; in [9], 0.1 °C; in assay [10] it was 0.4 °C; in assay [11] it was 0.6 °C; in assay [12], -0.1 °C. The ΔTm in [13] came to 0.4 °C; in assay [14], 0.5 °C; in assay [15] it was 0.4 °C; in assay [16], 0.2 °C; in assay [17] it was 0.4 °C; in assay [18], 1.2 °C. In addition, the results for the ΔTm in assay [19], in [20] and in [21] were 0.4 °C, 0.1 °C and 0.2 °C, respectively.
In the case of `COc1cc2ncnc(Nc3cccc(Br)c3)c2cc1OC`, the ΔTm in [1] was 1.4 °C; in assay [2], 0.5 °C; in [3] it was -0.3 °C; in assay [4], 7.4 °C; in assay [5], 0.2 °C; in assay [6], 3.3 °C. Moreover, the ΔTm is 1.2 °C in [7]; 1.5 °C in assay [8]; 0 °C in assay [9]; 2 °C in [10]; 0.4 °C in [11]; -0.5 °C in [12]. Besides, the ΔTm in assay [13] was 0.3 °C; in assay [14], 2 °C; in assay [15], 2.7 °C; in [16] it was 0.9 °C; in assay [17], 0.6 °C; in assay [18], 0.4 °C. In addition, the results for the ΔTm in assay [19], in [20] and in assay [21] were 0.5 °C, 0.6 °C and 0 °C, respectively.
As to `COC(=O)[C@]1(O)C[C@@H]2O[C@@]1(C)n1c3ccccc3c3c4c(c5c6ccccc6n2c5c31)C(=O)NC4` (single isomer, unassigned), the ΔTm was 12.7 °C in assay [1]; 3.2 °C in assay [2]; 2.6 °C in assay [3]; 10.9 °C in [4]; 3.1 °C in assay [5]; 17.5 °C in [6]. Besides, the ΔTm is 3 °C in [7]; 4.5 °C in assay [8]; 2.7 °C in assay [9]; 8.7 °C in [10]; 2.3 °C in [11]; 3.5 °C in assay [12]. In addition, the ΔTm is 5.5 °C in assay [13]; 6 °C in assay [14]; 0.8 °C in [15]; 3.8 °C in assay [16]; 2 °C in assay [17]; -0.2 °C in assay [18]. For the same compound, the results for the thermal shift (ΔTm) in assay [19], in [20] and in assay [21] were 0 °C, 1.6 °C and 2.2 °C, respectively.
As to `Cc1cncc2cccc(S(=O)(=O)N3CCCNC[C@@H]3C)c12`, the ΔTm was 1.8 °C in assay [1]; 1.2 °C in [2]; 0.7 °C in assay [3]; 3.5 °C in assay [4]; -0.1 °C in [5]; 2 °C in assay [6]. Besides, the ΔTm in assay [7] is 1.5 °C; in [8], 0.6 °C; in assay [9], 1.1 °C; in assay [10], 1 °C; in assay [11] it was 1.1 °C; in assay [12] it was -0.4 °C. In addition, the ΔTm in assay [13] was 0.5 °C; in assay [14], 1.5 °C; in assay [15], -0.1 °C; in [16], 0.7 °C; in assay [17], 0.2 °C; in assay [18] it was 1.2 °C. Moreover, the ΔTm in [19] was 0 °C; in assay [20] it was 0.8 °C; in assay [21], -0.1 °C.
Turning to `CCOc1cc(/C=C(\C#N)C(N)=O)cc(CSc2ccccc2)c1O`, the ΔTm in [1] was 0.1 °C; in assay [2], -0.2 °C; in assay [3], 1.9 °C; in [4] it was 1.1 °C; in [5] it was 0 °C; in [6] it was 0.6 °C. The shift in melting temperature (ΔTm) is -0.3 °C in assay [7]; 1.1 °C in assay [8]; -0.2 °C in [9]; 0.2 °C in assay [10]; 1 °C in assay [11]; -0.2 °C in [12]. Moreover, the ΔTm in assay [13] is 0 °C; in [14], 0 °C; in assay [15] it was 4.3 °C; in [16], 0.1 °C; in assay [17], 0.2 °C; in assay [18], 0.1 °C. In addition, the ΔTm in assay [19] is -0.1 °C; in [20], -0.5 °C; in assay [21], 0 °C.
In the case of `O=c1c(-c2ccc(F)cc2)c(-c2ccncc2)[nH]n1-c1ccc(Cl)cc1`, the ΔTm in assay [1] came out at 0.6 °C; in assay [2], 0.5 °C; in [3] it was 0.3 °C; in assay [4] it was 4.3 °C; in assay [5], 0.6 °C; in assay [6], 0.2 °C. Also, the ΔTm in assay [7] was -0.5 °C; in [8], 1.9 °C; in [9], 0 °C; in assay [10], -0.2 °C; in assay [11] it was 0.1 °C; in assay [12] it was 0.1 °C. The ΔTm is -0.1 °C in assay [13]; 0.3 °C in assay [14]; 0.3 °C in assay [15]; 0.2 °C in assay [16]; 1.2 °C in assay [17]; 0.7 °C in [18]. The ΔTm was found to be 0.8 °C in assay [19], 0.6 °C in assay [20] and 1.3 °C in [21].
